This data set in a line: log P(o/w), n-octanol/water two phase system. The class given is physicochemical. From the text: *log P(o/w) is the decimal logarithm of the distribution coefficient
of a substance in the noctanol/water two phase system.
Turning to `CN(C)c1ccc(C=C(C#N)c2nc3cc(C(=O)O)ccc3o2)cc1` [Dye I-1], the logP (usually a log measure of how a compound divides between an organic and an aqueous phase) was below 5.

Regarding `Cc1cc(N(CC(=O)OC(C)COC(C)COC(C)(C)C)CC(=O)OC(C)COC(C)COC(C)(C)C)ccc1C=C(C#N)c1nc2cc(C(=O)O)ccc2o1` (centres unmarked) [Dye I-6], the logP was below 5.

Turning to `CCOCCOCCN(CCOCCOCC)c1ccc(C=C(C#N)c2nc3cc(S(=O)(=O)NC(=O)CC)ccc3o2)cc1` [Dye I-10], the logP is below 5.

For `CCOCCOCCN(CCOCCOCC)c1ccc(C=C(C#N)c2nc3cc(S(=O)(=O)NC(=O)CC)ccc3s2)cc1` [Dye I-22], the log partition coefficient (logP) is below 5.

The compound `CCCCOC(=O)CN(CC(=O)OCCCC)c1ccc(C=C(C#N)C(=O)c2ccc(NS(C)(=O)=O)cc2)c(C)c1` [GF-2] showed a logP below 5.

On to `CCCCS(=O)(=O)Nc1ccc(C2=C(C#N)C(=O)OC2=Cc2ccco2)cc1` [GF-3], for which the logP was below 5.

Regarding `CCCCCCCCCCCCCCCCS(=O)(=O)Nc1ccc2nc(C(C#N)=Cc3ccc(N(CC)CC)cc3C)sc2c1` [GF-4], the logP is above 5.

Compound `CCCCCCCCCCCCNc1cc(C)c(C=C(C#N)c2nc3ccc(NS(C)(=O)=O)cc3o2)cc1C` [GF-5] displayed a logP above 5.
